From patent publication US5925369A, “Bis alkanoyl esters of carnitine having bactericidal, fungicidal and antiprotozoal activity” (priority 1996, dated 1999)

Assays:
Propionibacterium acnes = test: MIC on anaerobic bacteria; type: cell-based; settings: Cutibacterium acnes; Propionibacterium acnes IDI 3482, anaerobic, Gram positive clinical isolate (suppurative acne); read-out: Minimal Inhibitory Concentration
Method: (§1) Bacteria from cultures in […].) medium on Petri dishes, grown overnight at 35° C. in an anaerobic jar, were resuspended in Brucella broth. The suspensions were adjusted to 1.0×10^8 cells/ml and distributed (0.2 ml/well) in microtiter plates (96-well U-bottomed plate). At the same time, 0.3 log dilutions of the substances are mixed with W. C. agar medium in four-sectioned Petri dishes, which are then seeded with the bacterial suspension by means of a multipoint inoculator (1.0×10^5 cells/spot). The plates are then incubated at 35° C. for 48 hours in an anaerobic jar) (See J. E. ROSENBLATT, Antimicrobial susceptibility testing of anaerobes, in Antibiotics in laboratory medicine. V. LORIAN Ed., II edition, 6, 159-180, Williams & Wilkins, Baltimora, Md 21202 U.S.A.).

Bacteroides fragilis = test: MIC on anaerobic bacteria; type: cell-based; settings: ATCC25285; Bacteroides fragilis ATCC 25285, anaerobic, Gram negative, lab collection; read-out: Minimal Inhibitory Concentration
Method: as §1

Eubacterium lentum = test: MIC on anaerobic bacteria; type: cell-based; settings: Eggerthella lenta; Eubacterium lentum IDI 3502, anaerobic, Gram positive clinical isolate (suppurative wound); read-out: Minimal Inhibitory Concentration
Method: as §1

[1] = test system: Tricophyton quinckeanum NCPF 309; test: In vivo antiinfective effect on topical mixed infection in mice; parameters: species or system BALB/c mice; key to T. quinckeanum: Not cured animals (fungal growth): +++: confluent fungal growth (from a 1ml skin homogenate); ++: semiconfluent fungal growth (from a 1ml skin homogenate); +: moderate fungal growth (from a 1ml skin homogenate); settings: for T. quinckeanum: Cured animals: 5 animals/group
Method: (§2) Male inbred BALB/c mice (C. RIVER), aged 6 weeks were used (5 animals per group).
(§3) The animals were topically infected with pathogenic strains of Tricophyton (Tricophyton quinckeanum NCPF 309) and Staphylococcus (Staphylococcus aureus LC1).
(§4) Suspensions of fungal microaleuriospores and bacteria were adjusted to a final concentration of 5.0×10^7 and 1.0×10^7 cells/ml, respectively. Volumes of 0.2 ml of each suspension were applied onto the upper posterior zone of the animals, which had previously been shaved and gently abraded with a scalpel blade until "glistening". Treatment started 30 hours after the inocula by administering 50 mg of each substance in a gel form (1% test article) on the infected skin once a day for 5 consecutive days. Two days following the last treatment, animals were sacrificed and infected tissue samples were collected. Following homogenization and appropriate dilution in medium, tissue samples were plated (in Mycobiotic agar and Mannitol Salt agar for fungi and bacteria, respectively) to selectively assess the growth of the pathogens. Fungal growth is evaluated by means of an arbitrary scale, while bacterial growth is evaluated by determining the CFUs (Colony Forming Units).

[2] = test system: Staphylococcus aureus LC1; test: as above; parameters: species or system BALB/c mice; settings: for S. aureus: Not cured animals (mean CFU/mouse) / S. aureus: Cured animals: 50 mg/day of 1% gel, topical, 5 days; for S. aureus: Cured animals: 5 animals/group; for activity on S. aureus, ST 1226 and ST 1103 compared: mixed topical infection
Method: as §2, §3, §4

dermatophytes = test: MIC on dermatophytes (all strains); type: cell-based; settings: for MIC: 22 strains
Method: Mycelium fragments, micro and macroaleuriospores are harvested from 7-day fungal cultures grown at 30 ° C. in Potato Dextrose agar by washing them with Sabouraud broth and 0.5% Tween 80. After a coarse filtration and washing, the fungal suspension is resuspended in Yeast Nitrogen Base supplemented with asparagine and glucose (YNBs) to yield a final concentration of 1.0×10^5 infective units/ml in a microtiter plate. The substances (0.3 log dilutions in Y.N.B.s.) are added to the fungal suspensions in order to generate a range of final concentrations from 0.19 to 100 mcg/ml. The microtiter plates are then incubated at 30° C. for 96-120 hours.

S. cerevisiae = test: MIC on yeast-like strains; type: cell-based; settings: Saccharomyces cerevisiae, ATCC7752; S. cerevisiae ATCC 7752, lab collection; read-out: Minimal Inhibitory Concentration
Method: Overnight yeast cultures in Sabouraud broth are appropriately washed and diluted in Yeast Nitrogen Base supplemented with asparagine and glucose (Y.N.B.s.) to yield approximately 5.0×10^4 CFU/ml in microtiter wells. Substance dilutions (0.3 log) in Y.N.B.s. are added to these suspensions to a final concentration range from 0.19 to 100 mcg/ml. Microtiter plates are then incubated at 35° C. for 24-48 hours (See PFALLER M., RINALDI M. G., […] J. M., BARTLETT M. S., BODY B. A., ESPINEL-INGROFF A., FROMTLING R. A., HALL G. S., HUGHES G. E., ODDS F. C., SUGAR A. M., Collaborative investigator of variables in susceptibility testing of yeasts, Ant. Agent and Chemoth., 34, 9:1648-1656, 1990. COOK R., McINTYRE K. A., […] J. M., Effects of incubation temperature, inoculum size, and medium on agreement of macro and microdilution broth susceptibility test, results for yeasts, Ant. Agent and Chemoth., 34, 8:1542-1545, 1990. […] E., PAETZNICK V., BODEY G. P., Fluconazole susceptibility testing of "Candida albicans" microtiter method that is indipendent of inoculum size, temperature, and time of reaching, Ant. Agent and Chemoth., 35, 8:1641-1646, 1991).

anaerobic bacteria = test: MIC on anaerobic bacteria (all strains); type: cell-based; settings: for MIC: 3 strains
Method: as §1

mouse scarified skin = test: Dermal tolerability after repeated treatments (10 days) on mouse scarified skin; type: in vivo, CD1 mice; settings: 1% gel; for Cracking (C), mean score / Desquamation (D), mean score / Erythema (E), mean score: scale 0-3, 50 mg/day
Method: Male CD1 mice (C. RIVER), aged 6 weeks, were used (5 animals per group).
Substance formulations (1% of test article) were prepared in gel (Hydroxyethyl-cellulose, 2.5 gr.; Glycerin, 7.0 gr.; Propylene Glycol, 7.0 gr.; water up to 100 ml).
The central dorsal zone of the animals was first shaved, and then gently abraded with a scalpel blade. Treatment was performed 1 day following the dermal abrasion by administering 50 mg of each substance formulation once a day, for 10 consecutive days. The treated skin areas were examined at 5, 7, 9, and 11 days following scarification. The evaluation was based upon grading of the lesions as […] (E), DESQUAMATION (D), and CRACKING (C), according to the following scale:
The mean of the values of each parameter in the same animal group allowed us to evaluate the tissue damage provoked by the substance under examination.

[3] = 50 mg/day of 1% gel, topical, 5 days

SMILES	MIC (Propionibacterium acnes)	MIC (Bacteroides fragilis)	MIC (Eubacterium lentum)	T. quinckeanum: Cured animals [1, 3]	S. aureus: Not cured animals (mean CFU/mouse) [2]	S. aureus: Cured animals [2]	activity on S. aureus, ST 1226 and ST 1103 compared [2]	MIC (dermatophytes)	MIC (S. cerevisiae)	MIC (anaerobic bacteria)	Cracking (C), mean score (mouse scarified skin; day +5)	Desquamation (D), mean score (mouse scarified skin; day +5)	Erythema (E), mean score (mouse scarified skin; day +5)	Cracking (C), mean score (mouse scarified skin; day +7)	Desquamation (D), mean score (mouse scarified skin; day +7)	Erythema (E), mean score (mouse scarified skin; day +7)	Cracking (C), mean score (mouse scarified skin; day +9)	Desquamation (D), mean score (mouse scarified skin; day +9)	Erythema (E), mean score (mouse scarified skin; day +9)	Cracking (C), mean score (mouse scarified skin; day +11)	also measured
CCCCCCCCCCCOC(=O)C[C@H](C[N+](C)(C)C)OC(=O)CC(C)C [ST 1103, isovaleryl L-carnitine undecyl ester methanesulfonate, reference compound]	6.25 µg/mL	25 µg/mL	3.12 µg/mL	80%	40 CFU/mouse	80%	identical activity on S. aureus	13.5 µg/mL	3.12 µg/mL	11.4 µg/mL	0	0.4	1.2	0	0.4	0.4	0	0	0	0	T. quinckeanum: Not cured animals (fungal growth) [1, 3]: +; Desquamation (D), mean score (mouse scarified skin; day +11): 0; Erythema (E), mean score (mouse scarified skin; day +11): 0
CCCCCCCCCCC(=O)O[C@H](CC(=O)OCc1ccc(COC(=O)C[C@H](C[N+](C)(C)C)OC(=O)CCCCCCCCCC)cc1)C[N+](C)(C)C [ST 1226, bis(undecanoyl L-carnitine chloride)p-xylilene diester]	6.25 µg/mL	12.5 µg/mL	6.25 µg/mL	100%	50 CFU/mouse	80%	identical activity on S. aureus	3.19 µg/mL	1.56 µg/mL	8.33 µg/mL	0	0	0.2	0	0	0	0	0	0	0	antifungal activity compared with ST 1103 ([1]; mixed topical infection): greater antinfungal activity than ST 1103; activity compared with ST 1103 (dermatophytes): higher activity than ST 1103; mean MIC value compared with ST 1103 (anaerobic bacteria): smaller than ST 1103; dermal tolerability compared with ST 1103 (mouse scarified skin; 10 days): better tolerated than ST1103; Desquamation (D), mean score (mouse scarified skin; day +11): 0; Erythema (E), mean score (mouse scarified skin; day +11): 0
